Measured values reported in US4613588A, “Benzaldehyde and 4,6-O-benzylidene-D-glucose for alleviating pain” (Kaken Pharmaceutical Co. Ltd., priority 1984, dated 1986).
Where two headings read alike, the source gives them in different places.

Legend:
[1] = molecular target: T1, dipeptidylcarboxypeptidase (enkephalinase A) (Macaca fascicularis, UniProt G7NZK8); assay: Enkephalinase A inhibiting effect; assay type: biochemical; settings: read-out: enzyme inhibiting effect on enkephalinase A
T1 construct: releases Tyr-Gly-Gly from [3H]Leu-enkephalin
T1 sequence (G7NZK8 2-750): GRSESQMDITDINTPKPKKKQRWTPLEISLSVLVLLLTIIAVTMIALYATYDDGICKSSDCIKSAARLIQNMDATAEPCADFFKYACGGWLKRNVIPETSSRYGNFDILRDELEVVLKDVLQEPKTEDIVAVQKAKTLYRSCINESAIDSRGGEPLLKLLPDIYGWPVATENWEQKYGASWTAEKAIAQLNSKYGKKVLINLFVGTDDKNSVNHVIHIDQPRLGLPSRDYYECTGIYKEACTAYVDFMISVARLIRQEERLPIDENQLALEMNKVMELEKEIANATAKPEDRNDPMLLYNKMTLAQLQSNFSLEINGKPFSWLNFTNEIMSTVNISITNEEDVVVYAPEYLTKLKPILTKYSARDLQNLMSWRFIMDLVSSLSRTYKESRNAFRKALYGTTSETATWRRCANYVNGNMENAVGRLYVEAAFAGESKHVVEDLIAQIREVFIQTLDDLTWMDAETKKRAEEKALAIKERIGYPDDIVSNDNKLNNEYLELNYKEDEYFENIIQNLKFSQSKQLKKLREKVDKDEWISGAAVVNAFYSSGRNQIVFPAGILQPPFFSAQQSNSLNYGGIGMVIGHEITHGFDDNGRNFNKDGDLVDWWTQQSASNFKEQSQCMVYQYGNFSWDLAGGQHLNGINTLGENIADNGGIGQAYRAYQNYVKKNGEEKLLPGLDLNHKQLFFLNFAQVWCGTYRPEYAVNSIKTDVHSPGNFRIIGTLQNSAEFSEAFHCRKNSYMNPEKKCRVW
Method: (§1) The cerebrum of Macaca Fascicularis was chopped using anatomical scissors, 3 volumes that of 25 mM tris-hydrochloric acid buffer (pH 7.7) was added thereto and the mixture homogenized. It was then ultracentrifuged (50,000×g), the supernatant was removed, and the obtained precipitants were treated and washed twice using the same buffer (these precipitates contained enkephalin decomposing enzymes in a form combined to the cell membrane).
(§2) Thereafter, 25 mM tris-hydrochloric acid buffer (pH 7.7) containing 1% of Triton X-100 was added to the precipitates to extract enkephalinase. […]
(§3) The obtained enkephalin decomposing enzymes were analyzed by acrylamide electrophoresis to find that they were single proteins respectively.
(§4) The enzymatic activity of the respective decomposing enzymes obtained above was measured by the qualitative and quantitative analyses of the decomposition products using [^3 H]-enkephalin or enkephalin as a substrate and employing Porapak Q (produced by Water Associates) column method, high-performance liquid chromatography (HPLC), silica gel thin layer autography, etc.
10 μl of 10 μCi [^3 H] […] Tyr-Gly-Gly was determined using a liquid scintillation counter. […]

[2] = tested on: aminopeptidase; assay: Aminopeptidase (enkephalin decomposing enzyme) inhibiting effect; assay type: biochemical, Macaca Fascicularis
Method: as §1, §2, §3
as §4, with “etc. […]” for “etc.”

[3] = molecular target: T2, dipeptidylaminopeptidase (enkephalinase B) (Macaca fascicularis, UniProt A0A7N9C8Y6); assay: Enkephalinase B inhibiting effect; assay type: biochemical
T2 construct: releases Tyr-Gly from enkephalin
T2 sequence (A0A7N9C8Y6 1-737): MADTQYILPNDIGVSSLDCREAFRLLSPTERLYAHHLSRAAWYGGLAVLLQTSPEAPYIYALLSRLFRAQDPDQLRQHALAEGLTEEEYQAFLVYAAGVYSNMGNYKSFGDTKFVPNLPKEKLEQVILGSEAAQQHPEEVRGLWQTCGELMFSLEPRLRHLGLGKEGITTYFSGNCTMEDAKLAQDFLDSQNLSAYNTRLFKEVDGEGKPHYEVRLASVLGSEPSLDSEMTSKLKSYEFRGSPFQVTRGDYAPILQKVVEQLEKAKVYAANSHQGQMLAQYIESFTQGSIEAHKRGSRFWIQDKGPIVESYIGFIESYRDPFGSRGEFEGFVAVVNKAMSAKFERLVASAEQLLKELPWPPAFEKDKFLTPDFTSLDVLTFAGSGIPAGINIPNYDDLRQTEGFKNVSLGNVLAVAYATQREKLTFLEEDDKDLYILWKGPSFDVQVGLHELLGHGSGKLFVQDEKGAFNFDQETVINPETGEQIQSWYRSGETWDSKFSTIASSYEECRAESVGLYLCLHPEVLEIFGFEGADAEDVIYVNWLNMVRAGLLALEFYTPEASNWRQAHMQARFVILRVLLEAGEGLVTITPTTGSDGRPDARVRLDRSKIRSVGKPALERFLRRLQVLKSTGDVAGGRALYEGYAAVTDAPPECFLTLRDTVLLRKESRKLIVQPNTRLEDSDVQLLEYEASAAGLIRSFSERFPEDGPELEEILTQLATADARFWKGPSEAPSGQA
Method: as §1, §2, §3
as §4, with “etc. […]” for “etc.”

[4] = molecular target: T3, angiotensin converting enzyme (Macaca fascicularis, UniProt A0A2K5VWQ5); assay: Angiotensin converting enzyme inhibiting effect; assay type: biochemical
T3 sequence (A0A2K5VWQ5 31-1307): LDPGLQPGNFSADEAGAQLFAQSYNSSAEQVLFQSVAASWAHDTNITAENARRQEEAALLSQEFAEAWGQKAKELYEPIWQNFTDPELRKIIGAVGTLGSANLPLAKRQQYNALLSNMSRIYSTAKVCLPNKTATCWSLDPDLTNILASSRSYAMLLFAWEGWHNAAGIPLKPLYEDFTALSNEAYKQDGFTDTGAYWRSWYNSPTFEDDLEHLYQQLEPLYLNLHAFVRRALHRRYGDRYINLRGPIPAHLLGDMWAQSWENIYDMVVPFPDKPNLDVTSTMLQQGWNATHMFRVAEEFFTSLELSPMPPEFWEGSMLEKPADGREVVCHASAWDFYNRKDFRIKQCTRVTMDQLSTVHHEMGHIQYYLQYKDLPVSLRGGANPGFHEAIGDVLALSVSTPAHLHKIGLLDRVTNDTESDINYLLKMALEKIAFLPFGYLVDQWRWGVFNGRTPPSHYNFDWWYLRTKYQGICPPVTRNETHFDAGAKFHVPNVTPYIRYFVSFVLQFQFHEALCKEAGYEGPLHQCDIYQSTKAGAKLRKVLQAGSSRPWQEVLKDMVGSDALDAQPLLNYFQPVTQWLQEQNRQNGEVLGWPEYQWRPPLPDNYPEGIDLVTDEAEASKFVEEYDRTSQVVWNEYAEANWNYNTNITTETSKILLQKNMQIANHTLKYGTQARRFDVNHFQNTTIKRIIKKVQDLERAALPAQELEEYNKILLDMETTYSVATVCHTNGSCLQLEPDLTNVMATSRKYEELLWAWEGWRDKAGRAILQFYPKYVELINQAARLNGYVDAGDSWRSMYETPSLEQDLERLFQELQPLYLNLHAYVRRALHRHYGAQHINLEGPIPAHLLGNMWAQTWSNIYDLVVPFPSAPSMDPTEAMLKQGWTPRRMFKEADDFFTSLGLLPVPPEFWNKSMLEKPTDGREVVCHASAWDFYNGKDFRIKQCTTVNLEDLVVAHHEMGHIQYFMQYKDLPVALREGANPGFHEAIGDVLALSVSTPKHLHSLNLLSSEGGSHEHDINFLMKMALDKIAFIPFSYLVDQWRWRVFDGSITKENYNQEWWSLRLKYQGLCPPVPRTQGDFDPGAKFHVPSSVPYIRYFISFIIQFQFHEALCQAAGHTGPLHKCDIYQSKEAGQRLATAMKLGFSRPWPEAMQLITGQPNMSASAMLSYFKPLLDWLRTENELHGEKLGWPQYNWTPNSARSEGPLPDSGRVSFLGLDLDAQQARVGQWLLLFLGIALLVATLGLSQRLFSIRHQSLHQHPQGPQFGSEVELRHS
Method: as §1, §2, §3
as §4, with “etc. […]” for “etc.”

[5] = Acute toxicity by subcutaneous injection in rats; settings: rat, in vivo, sc
Source text: Since both benzaldehyde and 4,6-O-benzylidene-D-glucose are substantially non-toxic a wide dosage range may be administered depending on the severity of the pain experienced. The acute toxicity of benzaldehyde and 4,6-O-benzylidene-D-glucose are 5 g/kg or higher and 4 g/kg or higher, respectively, when measured by subcutaneous injection in rats according to conventional toxicity procedures.

[6] = tested on: carcinomatous pain; assay: Carcinomatous pain treating tests (clinical examples); assay type: in vivo, human; settings: one patient
Method: Further, using benzaldehyde and 4,6-O-benzylidene-D-glucose the following carcinomatous pain treating tests were conducted.
After hospitalization, 25 mg benzaldehyde tablets (enteric tablets containing benzaldehyde prepared in the above-described Formulation Example 5) were administered at a dosage of 5 tablets, 4 times a day.
Since variety of chemotherapeutics were not administered because there was a threat of strong side effects, the sole administration of 4,6-O-benzylidene-D-glucose was started in such a way that 1,200 mg of a freeze dried preparation thereof was dissolved in 100 ml of physiological saline and administered i.v. at a rate of once a day (time required being ca. 10 minutes).

[7] = Japanese Patent Application Laid-Open No. 108027/1977 and No. 70428/1979; cited from earlier work

OC1O[C@@H]2COC(c3ccccc3)O[C@H]2[C@H](O)[C@H]1O (stereo partly drawn) [4,6-O-benzylidene-D-glucose]
inhibition at 1200 µg/mL ([1]; 1.2 mg/ml): 81% | enzyme inhibiting effect on aminopeptidase ([2]; 1.2 mg/ml): did not exhibit an enzyme inhibiting effect | enzyme inhibiting effect on enkephalinase B ([3]; 1.2 mg/ml): did not exhibit an enzyme inhibiting effect | enzyme inhibiting effect on angiotensin converting enzyme ([4]; 1.2 mg/ml): did not exhibit an enzyme inhibiting effect | LD50 [5]: ≥ 4000 mg/kg | pain ([6]; gastric cancer metastasis to bone, 1,200 mg i.v. once a day, 17th to 18th day): the pain almost disappeared | tumor condition by bone scintillation ([6]; gastric cancer metastasis to bone, 1,200 mg i.v. once a day, 26th day, versus before administration): the tumor condition was the same | mobility ([6]; gastric cancer metastasis to bone, 1,200 mg i.v. once a day, from 10th day): became able to sit on bed | carcinostatic effect [7]: known to have carcinostatic effect

O=Cc1ccccc1 [benzaldehyde]
inhibition at 1000 µg/mL [1]: 99% | enzyme inhibiting effect on aminopeptidase ([2]; 1 mg/ml): did not exhibit an enzyme inhibiting effect | enzyme inhibiting effect on enkephalinase B ([3]; 1 mg/ml): did not exhibit an enzyme inhibiting effect | enzyme inhibiting effect on angiotensin converting enzyme ([4]; 1 mg/ml): did not exhibit an enzyme inhibiting effect | LD50 ([5]; subcutaneous injection, rats, read-out: acute toxicity): ≥ 5000 mg/kg | pain (subjective symptom) ([6]; mandible cancer relapse, 25 mg enteric tablets (Formulation Example 5), 5 tablets 4 times a day, oral, from 5th day): the pain was eased | carcinoma size by X-ray examination ([6]; mandible cancer relapse, 25 mg enteric tablets, 5 tablets 4 times a day, oral): did not reduce in size | pain (subjective symptom) ([6]; mandible cancer relapse, 25 mg enteric tablets, 5 tablets 4 times a day, oral, 7th day): almost no pain | carcinostatic effect [7]: known to have carcinostatic effect
